According to ChEMBL document CHEMBL5723585, “Data for DCP probe JNJ-54082730” (2024):
Calls of active or inactive are those of the source. The calls are words filed in the database; no cut-off is given here.

Tests used:
[1] = species on record: Rattus norvegicus; assay: SKCa channel Eurofins-Cerep binding assay; assay type: protein assay; parameters: ligand concentration 0.007 nM; settings: filed as antagonist, Compound concentration 10.0 uM
[2] = biological target: Muscarinic acetylcholine receptor M3 (Homo sapiens) (UniProt P20309); assay: M3 Eurofins-Cerep binding assay; parameters: ligand concentration 0.2 nM; settings: filed as antagonist, Compound concentration 10.0 uM
[3] = biological target: Sodium-dependent dopamine transporter (Homo sapiens) (UniProt Q01959); assay: dopamine transporter Eurofins-Cerep binding assay; settings: filed as antagonist, Compound concentration 10.0 uM
[4] = biological target: cGMP-dependent 3',5'-cyclic phosphodiesterase (Homo sapiens, UniProt O00408); assay: Scintillation proximity assay (PDE2A) ( Mean (95% Confidence Interval) = 0.8 -1 nM; Ki = 0.7 nM)
[5] = biological target: cAMP and cAMP-inhibited cGMP 3',5'-cyclic phosphodiesterase 10A (Homo sapiens, UniProt Q9Y233); assay: IC50 of hPDE10A2 in the PDE screen at 1.0 µM
cAMP and cAMP-inhibited cGMP 3',5'-cyclic phosphodiesterase 10A, sequence (Q9Y233 whole entry): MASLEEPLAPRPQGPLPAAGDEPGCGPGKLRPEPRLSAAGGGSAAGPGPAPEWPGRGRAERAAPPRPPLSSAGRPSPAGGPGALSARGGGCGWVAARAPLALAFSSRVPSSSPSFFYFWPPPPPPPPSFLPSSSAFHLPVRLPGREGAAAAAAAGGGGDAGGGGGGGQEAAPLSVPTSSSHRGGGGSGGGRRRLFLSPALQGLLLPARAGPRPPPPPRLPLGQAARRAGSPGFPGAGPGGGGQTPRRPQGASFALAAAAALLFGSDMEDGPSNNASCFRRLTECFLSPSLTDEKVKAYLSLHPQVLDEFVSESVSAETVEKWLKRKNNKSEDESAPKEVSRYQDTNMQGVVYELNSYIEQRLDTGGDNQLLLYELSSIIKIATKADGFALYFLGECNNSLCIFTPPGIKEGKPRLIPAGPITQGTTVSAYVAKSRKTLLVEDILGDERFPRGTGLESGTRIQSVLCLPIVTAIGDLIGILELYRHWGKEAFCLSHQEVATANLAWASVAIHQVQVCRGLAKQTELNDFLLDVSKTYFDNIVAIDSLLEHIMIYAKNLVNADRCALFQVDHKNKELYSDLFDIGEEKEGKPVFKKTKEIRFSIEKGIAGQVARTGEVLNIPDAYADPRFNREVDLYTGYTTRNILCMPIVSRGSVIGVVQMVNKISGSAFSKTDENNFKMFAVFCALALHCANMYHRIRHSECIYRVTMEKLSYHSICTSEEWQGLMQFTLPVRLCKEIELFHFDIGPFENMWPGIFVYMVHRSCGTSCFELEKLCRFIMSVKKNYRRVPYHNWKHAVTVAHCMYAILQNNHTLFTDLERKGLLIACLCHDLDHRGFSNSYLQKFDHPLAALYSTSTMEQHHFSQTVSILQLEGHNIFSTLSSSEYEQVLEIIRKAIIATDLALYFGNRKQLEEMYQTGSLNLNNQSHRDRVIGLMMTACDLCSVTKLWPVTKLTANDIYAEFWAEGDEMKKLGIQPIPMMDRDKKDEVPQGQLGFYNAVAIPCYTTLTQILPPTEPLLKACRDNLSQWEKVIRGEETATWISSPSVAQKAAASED

[6] = species on record: Rattus norvegicus; assay: BZD (central) Eurofins-Cerep binding assay; settings: filed as agonist, Compound concentration 10.0 uM
[7] = biological target: 5-hydroxytryptamine receptor 1B (Homo sapiens) (UniProt P28222); assay: 5-HT1B Eurofins-Cerep binding assay; parameters: ligand concentration 1 nM; settings: filed as antagonist, Compound concentration 10.0 uM
[8] = species on record: Mus musculus; assay: sst (non-selective) Eurofins-Cerep binding assay; assay type: protein assay; parameters: ligand concentration 0.05 nM; settings: filed as agonist, Compound concentration 10.0 uM
[9] = biological target: High affinity 3',5'-cyclic-AMP phosphodiesterase 7A (Homo sapiens, UniProt Q13946); assay: IC50 of hPDE7A1 in the PDE screen at 1.0 µM
[10] = biological target: Phosphodiesterase 3 (Homo sapiens, UniProt Q14432+Q13370); assay: IC50 of hPDE3 in the PDE screen at 1.0 µM; assay type: protein assay
[11] = IC50 of bovine retina PDE6 in the PDE screen at 1.0 µM; parameters: species or system Bos taurus
[12] = biological target: C-X-C chemokine receptor type 2 (Homo sapiens) (UniProt P25025); assay: CXCR2 (IL-8B) Eurofins-Cerep binding assay; settings: filed as agonist, Compound concentration 10.0 uM
C-X-C chemokine receptor type 2 (Homo sapiens), sequence (P25025 whole entry): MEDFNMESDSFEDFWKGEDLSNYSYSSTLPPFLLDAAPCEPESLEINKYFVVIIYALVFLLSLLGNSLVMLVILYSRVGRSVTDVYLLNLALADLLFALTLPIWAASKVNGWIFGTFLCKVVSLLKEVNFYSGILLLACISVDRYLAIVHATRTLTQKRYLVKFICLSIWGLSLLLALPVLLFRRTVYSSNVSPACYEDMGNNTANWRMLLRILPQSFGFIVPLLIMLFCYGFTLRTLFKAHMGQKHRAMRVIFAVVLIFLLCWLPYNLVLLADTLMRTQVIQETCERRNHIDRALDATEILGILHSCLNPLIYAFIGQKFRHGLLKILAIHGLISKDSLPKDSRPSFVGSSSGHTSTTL

[13] = biological target: 5-hydroxytryptamine receptor 2B (Homo sapiens) (UniProt P41595); assay: 5-HT2B Eurofins-Cerep binding assay; settings: filed as agonist, Compound concentration 10.0 uM
5-hydroxytryptamine receptor 2B (Homo sapiens), sequence (P41595 whole entry): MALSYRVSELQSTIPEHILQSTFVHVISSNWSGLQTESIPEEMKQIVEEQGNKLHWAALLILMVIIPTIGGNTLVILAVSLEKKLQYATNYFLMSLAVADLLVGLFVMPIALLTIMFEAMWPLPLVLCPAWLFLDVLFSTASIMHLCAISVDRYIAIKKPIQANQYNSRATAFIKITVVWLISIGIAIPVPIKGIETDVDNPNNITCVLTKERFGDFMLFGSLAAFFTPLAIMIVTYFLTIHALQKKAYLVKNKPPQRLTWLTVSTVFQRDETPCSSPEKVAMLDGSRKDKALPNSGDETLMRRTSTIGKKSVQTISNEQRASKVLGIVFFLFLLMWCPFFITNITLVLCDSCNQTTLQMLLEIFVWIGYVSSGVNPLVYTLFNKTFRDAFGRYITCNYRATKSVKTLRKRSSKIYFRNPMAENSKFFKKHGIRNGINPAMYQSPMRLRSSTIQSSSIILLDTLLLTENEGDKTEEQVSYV

[14] = biological target: B2 bradykinin receptor (Homo sapiens) (UniProt P30411); assay: B2 Eurofins-Cerep binding assay; parameters: ligand concentration 0.3 nM; settings: filed as agonist, Compound concentration 10.0 uM
[15] = biological target: Muscarinic acetylcholine receptor M2 (Homo sapiens) (UniProt P08172); assay: M2 Eurofins-Cerep binding assay; parameters: ligand concentration 2 nM; settings: filed as antagonist, Compound concentration 10.0 uM
[16] = biological target: 5-hydroxytryptamine receptor 7 (Homo sapiens) (UniProt P34969); assay: 5-HT7 Eurofins-Cerep binding assay; parameters: ligand concentration 4 nM; settings: filed as agonist, Compound concentration 10.0 uM
[17] = biological target: 5-hydroxytryptamine receptor 5A (Homo sapiens) (UniProt P47898); assay: 5-HT5a Eurofins-Cerep binding assay; parameters: ligand concentration 1.5 nM; settings: filed as agonist, Compound concentration 10.0 uM
5-hydroxytryptamine receptor 5A (Homo sapiens), sequence (P47898 whole entry): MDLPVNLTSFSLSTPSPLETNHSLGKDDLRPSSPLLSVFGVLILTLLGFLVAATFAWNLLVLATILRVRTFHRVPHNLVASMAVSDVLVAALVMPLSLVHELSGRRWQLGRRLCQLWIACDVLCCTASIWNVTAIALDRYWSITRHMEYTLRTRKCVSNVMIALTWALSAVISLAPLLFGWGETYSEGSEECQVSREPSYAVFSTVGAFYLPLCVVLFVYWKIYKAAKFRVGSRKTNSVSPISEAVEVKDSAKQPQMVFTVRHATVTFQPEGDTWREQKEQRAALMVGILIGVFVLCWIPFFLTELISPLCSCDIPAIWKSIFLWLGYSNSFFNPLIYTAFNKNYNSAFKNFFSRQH

[18] = biological target: D(2) dopamine receptor (Homo sapiens) (UniProt P14416); assay: D2S (h) Eurofins-Cerep binding assay; parameters: ligand concentration 0.3 nM; settings: filed as antagonist, Compound concentration 10.0 uM
[19] = biological target: Cholecystokinin receptor type A (Homo sapiens) (UniProt P32238); assay: CCK1 (CCKA) Eurofins-Cerep binding assay; parameters: ligand concentration 0.08 nM; settings: filed as agonist, Compound concentration 10.0 uM
[20] = biological target: Vasoactive intestinal polypeptide receptor 1 (Homo sapiens) (UniProt P32241); assay: VPAC1 (VIP1) Eurofins-Cerep binding assay; parameters: ligand concentration 0.04 nM; settings: filed as agonist, Compound concentration 10.0 uM
Vasoactive intestinal polypeptide receptor 1 (Homo sapiens), sequence (P32241 whole entry): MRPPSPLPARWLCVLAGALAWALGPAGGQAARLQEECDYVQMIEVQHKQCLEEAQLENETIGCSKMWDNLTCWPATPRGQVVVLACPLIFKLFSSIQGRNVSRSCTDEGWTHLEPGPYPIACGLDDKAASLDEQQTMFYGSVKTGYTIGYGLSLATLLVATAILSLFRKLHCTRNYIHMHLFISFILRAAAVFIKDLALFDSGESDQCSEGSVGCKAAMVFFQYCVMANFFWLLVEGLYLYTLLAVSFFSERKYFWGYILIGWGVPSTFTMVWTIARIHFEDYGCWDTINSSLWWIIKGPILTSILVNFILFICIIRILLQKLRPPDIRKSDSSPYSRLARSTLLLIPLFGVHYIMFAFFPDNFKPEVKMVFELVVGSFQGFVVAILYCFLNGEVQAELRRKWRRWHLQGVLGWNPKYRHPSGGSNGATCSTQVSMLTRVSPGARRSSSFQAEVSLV

[21] = biological target: Melatonin receptor type 1A (Homo sapiens) (UniProt P48039); assay: MT1 (ML1A) Eurofins-Cerep binding assay; parameters: ligand concentration 0.01 nM; settings: filed as agonist, Compound concentration 10.0 uM
Melatonin receptor type 1A (Homo sapiens), sequence (P48039 whole entry): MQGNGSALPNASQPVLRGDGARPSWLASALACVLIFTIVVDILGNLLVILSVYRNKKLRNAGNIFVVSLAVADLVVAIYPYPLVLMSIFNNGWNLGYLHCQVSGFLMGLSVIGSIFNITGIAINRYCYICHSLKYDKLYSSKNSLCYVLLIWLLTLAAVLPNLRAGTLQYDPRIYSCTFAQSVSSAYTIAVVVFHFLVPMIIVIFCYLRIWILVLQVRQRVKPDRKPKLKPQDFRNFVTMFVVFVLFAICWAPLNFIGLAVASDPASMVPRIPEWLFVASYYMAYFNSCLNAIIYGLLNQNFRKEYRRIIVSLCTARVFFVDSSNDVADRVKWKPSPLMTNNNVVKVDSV

[22] = species on record: Rattus norvegicus; assay: alpha 1 (non-selective) Eurofins-Cerep binding assay; assay type: protein assay; parameters: ligand concentration 0.25 nM; settings: filed as antagonist, Compound concentration 10.0 uM
[23] = biological target: High affinity cAMP-specific and IBMX-insensitive 3',5'-cyclic phosphodiesterase 8A (Homo sapiens, UniProt O60658); assay: IC50 of hPDE8A1 in the PDE screen at 1.0 µM
High affinity cAMP-specific and IBMX-insensitive 3',5'-cyclic phosphodiesterase 8A, sequence (O60658 whole entry): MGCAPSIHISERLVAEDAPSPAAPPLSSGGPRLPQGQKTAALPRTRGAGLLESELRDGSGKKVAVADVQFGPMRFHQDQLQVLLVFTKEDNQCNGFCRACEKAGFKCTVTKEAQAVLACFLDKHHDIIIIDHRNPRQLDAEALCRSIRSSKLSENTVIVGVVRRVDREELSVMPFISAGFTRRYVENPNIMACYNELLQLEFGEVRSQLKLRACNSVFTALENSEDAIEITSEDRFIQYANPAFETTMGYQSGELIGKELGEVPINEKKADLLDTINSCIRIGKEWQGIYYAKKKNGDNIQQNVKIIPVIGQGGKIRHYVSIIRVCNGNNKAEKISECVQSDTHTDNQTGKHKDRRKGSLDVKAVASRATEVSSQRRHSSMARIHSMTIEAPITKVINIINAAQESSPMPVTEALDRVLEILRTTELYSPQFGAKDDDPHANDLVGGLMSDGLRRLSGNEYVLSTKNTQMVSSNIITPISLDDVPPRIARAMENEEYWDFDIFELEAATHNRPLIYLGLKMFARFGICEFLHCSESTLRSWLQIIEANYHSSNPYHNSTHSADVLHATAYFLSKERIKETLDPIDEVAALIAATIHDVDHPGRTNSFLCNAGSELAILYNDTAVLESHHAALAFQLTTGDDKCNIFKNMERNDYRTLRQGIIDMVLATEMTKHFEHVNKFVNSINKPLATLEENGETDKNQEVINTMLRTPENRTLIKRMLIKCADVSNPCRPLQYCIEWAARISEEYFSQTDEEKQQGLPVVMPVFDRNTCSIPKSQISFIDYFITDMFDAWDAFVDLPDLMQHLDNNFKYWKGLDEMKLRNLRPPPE

[24] = biological target: Type-1 angiotensin II receptor (Homo sapiens) (UniProt P30556); assay: AT1 Eurofins-Cerep binding assay; settings: filed as antagonist, Compound concentration 10.0 uM
Type-1 angiotensin II receptor (Homo sapiens), sequence (P30556 whole entry): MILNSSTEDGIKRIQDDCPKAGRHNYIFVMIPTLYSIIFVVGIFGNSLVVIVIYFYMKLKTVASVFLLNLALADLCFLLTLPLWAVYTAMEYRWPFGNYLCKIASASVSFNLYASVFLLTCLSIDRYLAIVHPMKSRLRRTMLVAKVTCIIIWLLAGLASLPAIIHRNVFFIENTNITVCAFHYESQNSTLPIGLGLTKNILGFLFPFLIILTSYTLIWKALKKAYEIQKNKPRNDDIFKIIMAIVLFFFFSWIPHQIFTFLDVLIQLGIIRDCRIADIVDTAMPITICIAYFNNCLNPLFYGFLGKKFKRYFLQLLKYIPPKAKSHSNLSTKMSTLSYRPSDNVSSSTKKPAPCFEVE

[25] = biological target: Endothelin-1 receptor (Homo sapiens) (UniProt P25101); assay: ETA Eurofins-Cerep binding assay; parameters: ligand concentration 0.03 nM; settings: filed as agonist, Compound concentration 10.0 uM
[26] = biological target: C-C chemokine receptor type 1 (Homo sapiens) (UniProt P32246); assay: CCR1 Eurofins-Cerep binding assay; parameters: ligand concentration 0.01 nM; settings: filed as agonist, Compound concentration 10.0 uM
C-C chemokine receptor type 1 (Homo sapiens), sequence (P32246 whole entry): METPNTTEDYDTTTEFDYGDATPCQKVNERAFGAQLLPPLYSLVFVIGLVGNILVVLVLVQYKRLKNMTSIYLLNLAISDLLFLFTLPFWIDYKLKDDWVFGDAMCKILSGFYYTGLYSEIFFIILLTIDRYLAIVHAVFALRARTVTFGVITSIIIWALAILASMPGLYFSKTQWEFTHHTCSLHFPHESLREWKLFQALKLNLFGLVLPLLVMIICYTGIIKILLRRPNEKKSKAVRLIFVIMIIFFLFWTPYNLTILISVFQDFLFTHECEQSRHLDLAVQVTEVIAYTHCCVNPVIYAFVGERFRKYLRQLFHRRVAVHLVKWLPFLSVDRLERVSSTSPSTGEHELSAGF

[27] = biological target: Delta-type opioid receptor (Homo sapiens) (UniProt P41143); assay: delta (DOP) Eurofins-Cerep binding assay; parameters: ligand concentration 0.5 nM; settings: filed as agonist, Compound concentration 10.0 uM
Delta-type opioid receptor (Homo sapiens), sequence (P41143 whole entry): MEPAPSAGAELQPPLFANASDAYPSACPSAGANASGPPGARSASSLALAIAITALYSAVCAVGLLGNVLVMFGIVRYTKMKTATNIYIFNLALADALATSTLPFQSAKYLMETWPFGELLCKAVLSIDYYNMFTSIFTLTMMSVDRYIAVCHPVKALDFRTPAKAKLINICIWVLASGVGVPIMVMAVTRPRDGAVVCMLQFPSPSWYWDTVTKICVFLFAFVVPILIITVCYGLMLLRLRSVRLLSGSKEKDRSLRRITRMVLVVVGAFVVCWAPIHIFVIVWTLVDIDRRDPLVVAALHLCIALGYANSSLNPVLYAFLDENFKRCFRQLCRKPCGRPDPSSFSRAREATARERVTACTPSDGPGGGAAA

[28] = biological target: Neuromedin-K receptor (Homo sapiens) (UniProt P29371); assay: NK3 Eurofins-Cerep binding assay; parameters: ligand concentration 0.4 nM; settings: filed as antagonist, Compound concentration 10.0 uM
[29] = species on record: Rattus norvegicus; assay: KV channel Eurofins-Cerep binding assay; parameters: ligand concentration 0.01 nM; settings: filed as antagonist, Compound concentration 10.0 uM
[30] = biological target: cGMP-dependent 3',5'-cyclic phosphodiesterase (Rattus norvegicus) (UniProt Q01062); assay: Target occupancy in striatum ( p.o.dose, 1 h); assay type: organism-based

In the case of `Cc1cc(C(=O)N2CC[C@@H](C)[C@H](c3cc(C(F)F)nc4ncnn34)C2)cc(C)n1`, the residual activity [1] is reported as 101%, the residual activity [2] is reported as 103% and the residual activity [3] is reported as 108%. The IC50 [4] was 0.0009 µM (active), the IC50 [5] was 0.099 µM (not active) and the Ki [5] was 0.03 µM. The residual activity [6] was 105%, the residual activity [7] was 102% and the residual activity [8] was 122%. The IC50 [9] was > 10 µM (not active), the IC50 [10] was 6.643 µM and the Ki [10] was 3.32 µM. For the same molecule, the IC50 [11] was > 10 µM (not active), the residual activity [12] was 109% and the residual activity [13] was 118%. For the same molecule, the residual activity [14] was 103%, the residual activity [15] was 115% and the residual activity [16] was 105%. For the same molecule, the residual activity [17] was 95.3%, the residual activity [18] was 104% and the residual activity [19] was 104%. The residual activity [20] was 111%, the residual activity [21] was 109% and the residual activity [22] was 104%. For the same molecule, the IC50 [23] was > 10 µM (not active), the residual activity [24] was 104% and the residual activity [25] was 102%. It also gave a residual activity [26] of 89.6%, a residual activity [27] of 90.2% and a residual activity [28] of 99.8%. For the same molecule, the residual activity [29] was 93.6% and the ED50 [30] was 5.3 mg/kg.
